Assay results as given in publication PMC12348105, “Pinene-Based Chiral Bipyridine Ligands Drive Potent Antibacterial Activity in Rhenium(I) Complexes” (Molecules, 2025).
Values after ≈ are worked out from the molar mass of the structure shown.

Experiments:
[1] = tested on: methicillin-resistant S. aureus (MRSA); test: MIC determination against methicillin-resistant S. aureus (broth dilution, OD600); type: cell-based, Staphylococcus aureus; conditions: for MIC: 24 h, 37 °C
Procedure: (§1) The antimicrobial activity of the rhenium tricarbonyl mononuclear complexes and their corresponding pinene-bipyridine ligands was determined against two S. aureus strain: methicillin-resistant S. aureus (MRSA 43300) and methicillin-sensitive S. aureus (MSSA 25923). These microorganisms are responsible for most nosocomial infections. […] Their mechanism of action is not yet fully understood, but we hypothesized that their positive charge allows them to interact more easily with biomolecules than neutral complexes, and/or that they more strongly interact with the negatively charged cellular membrane.
(§2) The antimicrobial activity of the complexes was evaluated against two strains: Staphylococcus aureus SA113 (methicillin-susceptible, MSSA) and S. aureus MecA R2954 (methicillin-resistant, MRSA). Briefly, each complex was initially dissolved in sterile DMSO at a concentration of 10 mM to create a stock solution. The solutions were diluted with Mueller–Hinton Broth (MHB) culture medium and added (serial dilution) to the wells of a 96-well plate at final concentrations ranging from 100 µM to 0.2 µM. Simultaneously, bacterial cultures grown the previous day in non-cation-adjusted MHB (1×) were used to prepare suspensions at 1 × 10^6 CFU/mL. An equal volume (50 µL) of these bacterial suspensions was added to each well containing the diluted complexes, resulting in final bacterial and compound concentrations of 5 × 10^5 CFU/mL and 100 µM to 0.2 µM, respectively. The plates were incubated at 37 °C for 24 h. Minimum inhibitory concentrations (MICs) were determined by measuring optical density at 600 nm (OD600). All experiments were performed in triplicate.

[2] = tested on: methicillin-sensitive S. aureus (MSSA); test: MIC determination against methicillin-sensitive S. aureus (broth dilution, OD600); type: cell-based, Staphylococcus aureus; conditions: 24 h, 37 °C
Procedure: as §1, §2

[3] = tested on: L929 mouse fibroblast cells; test: Cell toxicity, MTT assay; type: cell-based; conditions: 24 h treatment
Procedure: The cytotoxicity of the complexes was evaluated using L929 mouse fibroblast cells cultured in DMEM supplemented with 10% (v/v) fetal bovine serum (FBS), 1% (v/v) penicillin/streptomycin, and L-glutamine. Cytotoxicity was assessed using the standard MTT assay. Briefly, cells were seeded into 96-well plates at a density of 3.75 × 10^4 cells/mL and incubated for 24 h. The complexes, initially dissolved in DMSO, were diluted with culture medium and added to the wells at final concentrations ranging from 100 µM to 0.2 µM. After 24 h of treatment, MTT solution (5 mg/mL in PBS) diluted in fresh medium was added to each well at 25% of the total volume and incubated for an additional 4 h. Formazan crystals formed by metabolically active cells were then solubilized in a 1:1 (v/v) DMSO:ethanol solution. Control wells included untreated cells (100% viability). Relative cell viability was calculated by comparing absorbance values to those of the untreated control.

`CC1(C)[C@H]2Cc3cc(-c4ccccn4)ncc3[C@@H]1C2` [4,5-pinbpy, (−)-4,5-pinene bipyridine] gave an MIC ([1]; Staphylococcus aureus, MRSA) of 3.13 µM (≈ 0.784 µg/mL), an MIC ([2]; Staphylococcus aureus) of 3.13 µM (≈ 0.784 µg/mL) and an IC50 [3] of 2.5 to 5 µM.

For [Re(CO)3(bpy)Br], the MIC ([1]; MRSA) was greater than 50 µM, the “MIC higher than that of C2Br” value ([1]; MRSA, same core structure) was roughly 10 fold and the MIC [2] was greater than 50 µM.

`N#CC(C#N)=NNc1cccc(Cl)c1` [CCCP] was tested, and the “MIC of positive control” value ([1]; S. aureus, concentration stated as 1× MIC) was 12.5 µM.

Compound `CC1(C)[C@H]2Cc3nc(-c4ccccn4)ccc3[C@@H]1C2` [5,6-pinbpy, (−)-5,6-pinene bipyridine] has an MIC ([1]; Staphylococcus aureus, MRSA) of 3.13 µM (≈ 0.784 µg/mL), an MIC ([2]; Staphylococcus aureus) of 3.13 µM (≈ 0.784 µg/mL) and an IC50 [3] of 2.5 to 5 µM.

Compound [Re(CO)3(bpy)(Py)](OTf) has an MIC ([1]; MRSA) of 100 µM and an MIC [2] of 100 µM.
